From patent publication US4758551A (priority 1986, dated 1988)
Numbered stars: 1 amine (or outer) side, 2 acyl side, 3 side chain; on linkers, the order of the positions; unused ones are H or OH. Peptide text beside a SMILES is read from it. γGlu = O=C(O)[C@H](CCC(=O)[*:2])N[*:1]

How the values were obtained:
[1] = system: Male Swiss Webster mice; experiment: Induction of glutathionuria by gamma-glutamyl compounds in mice (urinary glutathione); format: in vivo; settings: for Urinary GSH: subcutaneous, 200 mM neutral solution, dose 4 mM per kilogram of body weight, urine collected for 1 hour
Protocol: Male Swiss Webster mice (20-27 g) were obtained from Taconic Farms (Germantown, N.Y.) and Hilltop Lab Animals (Scottsdale, Pa.).
(§1) The mice were fed ad libitum. Their urinary bladders were emptied by gentle abdominal pressure prior to subcutaneous injection of the gamma-glutamyl amino acids and urine was collected at 15 minute intervals for 1 hour in a tube containing 5 μl of 50% (w/v) 5-sulfosalicyclic acid. Elevated plasma glutathione levels were occasionally found after moderate abdominal pressure was applied to mice. For this reason, studies of urinary and plasma glutathione levels were carried out on different groups of mice.
(§2) Plasma, kidneys and livers were obtained and processed by well known means (see Anderson, M. E. et al, J. Biol. Chem. 255:9530-9533 (1980) and Anderson, M. E. et al, Methods Enzymol. 113:548-555 (1986)) and the concentration of glutathione therein was determined by the GSSG reductase-DTNB recycling assay (see Anderson, M. E. et al, Methods Enzymol. 113:548-555 (1986), Tietze, F., Analytical Biochem. 27:502-522 (1969) and Owens, C. et al, Biochem. J. 94:705-711 (1965)).
The urine samples were treated with 5mM dithiothreitol (pH 7.0) for 1 hour followed by derivatization with 2-vinylpyridine (see Griffith, O. W., Analytical Biochem. 106:207-212 (1980)). The derivatized samples were chromatographed on the amino acid analyzer using lithium citrate buffers (see Benson, J. V. et al, Anal. Biochem. 18:228-240 (1967)). The elution times for the vinylpyridine derivatives of gamma-glutamyl glutathione, gamma-glutamylcysteine, glutathione, cysteinylglycine and cysteine were 120, 163, 165, 220 and 235 minutes, respectively.
*The mice were injected subcutaneously with a 200 mM neutral solution of
the indicated amino acid (dose, 4 mM per kilogram of body weight) or with
an equivalent volume of saline. Urine was collected for 1 hour.

[2] = target: T1, purified rat kidney gamma-glutamyl transpeptidase (Rattus norvegicus, UniProt P07314); experiment: Gamma-glutamyl transpeptidase activity assay with L-gamma-glutamyl-p-nitroanilide (apparent Khi, Dixon plot); format: biochemical
T1 construct: Highly purified rate kidney gamma-glutamyl transpeptidase was prepared by well known means; from tissue; host or cells: rat kidney
T1 sequence (P07314 1-379 limits assumed): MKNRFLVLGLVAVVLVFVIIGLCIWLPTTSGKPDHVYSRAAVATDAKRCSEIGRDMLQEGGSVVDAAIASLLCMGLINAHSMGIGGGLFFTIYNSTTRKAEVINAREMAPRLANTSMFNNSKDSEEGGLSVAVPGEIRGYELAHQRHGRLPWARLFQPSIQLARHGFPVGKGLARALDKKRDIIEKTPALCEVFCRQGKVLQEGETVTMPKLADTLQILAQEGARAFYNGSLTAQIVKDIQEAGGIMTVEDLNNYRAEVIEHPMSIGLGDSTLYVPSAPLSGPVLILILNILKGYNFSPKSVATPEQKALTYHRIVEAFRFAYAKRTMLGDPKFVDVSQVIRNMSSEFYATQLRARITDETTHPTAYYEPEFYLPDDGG
T1 sequence (P07314 380-568 limits assumed): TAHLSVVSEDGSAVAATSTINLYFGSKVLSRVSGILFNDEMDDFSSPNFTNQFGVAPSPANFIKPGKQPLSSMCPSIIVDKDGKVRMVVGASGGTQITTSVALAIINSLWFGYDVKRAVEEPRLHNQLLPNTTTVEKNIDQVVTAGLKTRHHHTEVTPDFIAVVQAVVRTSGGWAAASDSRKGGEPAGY
Protocol: Highly purified rate kidney gamma-glutamyl transpeptidase was prepared by well known means (see Tate, S. S. et al, Methods Enzymol. 113:400-419 (1986)). Bovine and porcine gamma-glutamyl transpeptidase can be obtained from Sigma Chemical Co. (St. Louis, Mo.).
Gamma-glutamyl transpeptidase activity was assayed using L-gamma-glutamyl-p-nitroanilide and the rate of formation of p-nitroaniline at 405 nm at 37° C. was measured (see Orlowski, M. et al, Biochim. Biophys. Acta 73:679-681 (1973)). The 1 ml final volume enzyme reaction mixture employed contained 40 mM Tris-HCl (pH 7.5), 30 or 60 μM L-gamma-glutamyl-p-nitroanilide, 30 or 150 μM gamma-glutamyl amino acid and 0.115 units gamma-glutamyl transpeptidase. Two different concentrations of substrate were employed for kinetic analyses. The reaction was initiated by adding gamma-glutamyl transpeptidase. The absorbance scale was 0.02 or 0.05 to insure that initial rates were obtained. The apparent hydrolysis Ki (Khi) values were determined from a Dixon plot and normalized to the apparent Km value for 6 μM L-gamma-glutamyl-p-nitroanilide (see Thompson, G. A. et al, Biochem. Biophys, Res. Commun. 71:32-36 (1976)).
The values for the apparent Khi for a number of gamma-glutamyl amino acids using purified rat kidney gamma-glutamyl transpeptidase are shown in the Figure. […]

[3] = In vivo conversion of the administered gamma-glutamyl compound
From the text: The values for the apparent Khi for a number of gamma-glutamyl amino acids using purified rat kidney gamma-glutamyl transpeptidase are shown in the Figure. These values were plotted against the urinary glutathione obtained in the in vivo studies and a fairly close correlation was found. That is, the apparent affinity of gamma-glutamyl transpeptidase or gamma-glutamyl amino acid substrates varies over about a 6-fold range. In contrast, the affinity for the corresponding free amino acids varies over a range of several hundred (see Tate, S. S. et al, J. Biol. Chem. 249:7593-7602 (1974)).

[4] = system: Male Swiss Webster mice; settings: similar protocol (Griffith 1979); cited from earlier work
[5] = system: Male Swiss Webster mice; settings: cited from earlier work
[6] = system: Male Swiss Webster mice; experiment: Glutathione levels of kidney, liver and blood plasma of mice after administration; format: in vivo; settings: experimental period 1 hour
Protocol: as §1, §2

[7] = target: T1, purified rat kidney gamma-glutamyl transpeptidase; settings: free amino acids (Tate 1974); cited from earlier work
[8] = system: mice; settings: cited from earlier work
[9] = mice, after administration of the hydrazide

| SMILES | Urinary GSH [1] [mM] | also measured |
| --- | --- | --- |
| CC[C@H](NC(=O)CC[C@H](N)C(=O)O)C(=O)O | 1.52 ± 0.38 | – |
| N[C@@H](CCC(=O)N[C@@H](CSSC[C@H](NC(=O)CC[C@H](N)C(=O)O)C(=O)O)C(=O)O)C(=O)O [(L-Gamma-Glu-- L-Cys)2, (L-gamma-Glu-L-Cys)2] | 5.77 ± 1.05 | Urinary GSH ([1]; listed as gamma-glutamylcysteine disulfide): about 6 mM |
| CSCC[C@H](NC(=O)CC[C@@H](N)C(=O)O)C(=O)O [D-Gamma-Glu-- L-Met, D-Gamma-Glu-L-Met] | 0.18 ± 0.05 | – |
| N[C@@H](CSSC[C@H](N)C(=O)O)C(=O)O [L-Cystine, reference compound] | < 0.03 | – |
| N[C@@H](CCCCNC(=O)CC[C@H](N)C(=O)O)C(=O)O [L-Gamma-- ε-L-Lys, L-Gamma-Glu-ε-L-Lys] | 0.77 ± 0.17 | – |
| N[C@@H](CCC(=O)NCC(=O)O)C(=O)O [L-Gamma-Glu-- Gly, L-Gamma-Glu-Gly] | 2.67 ± 0.40 | – |
| N[C@@H](CCC(=O)NCC(=O)NCC(=O)O)C(=O)O [L-Gamma-Glu-- Gly--Gly, L-Gamma-Glu-Gly-Gly] (γGlu-Gly-Gly-OH) | 3.29 ± 1.16 | gamma-glutamyl glutathione in the urine [1]: significant amounts; urinary gamma-glutamyl cysteine relative to urinary glutathione ([1]; vinylpyridine derivative, amino acid analyzer): about 10% |
| N[C@@H](CCC(=O)N[C@@H](CSSC[C@H](NC(=O)CC[C@H](N)C(=O)O)C(=O)O)C(=O)O)C(=O)O [L-Gamma-Glu-- L-(Cys)2, L-Gamma-Glu-L-(Cys)2] | 2.63 ± 0.33 | – |
| C[C@H](NC(=O)CC[C@H](N)C(=O)O)C(=O)O [L-Gamma-Glu-- L-Ala, L-Gamma-Glu-L-Ala] | 5.69 ± 1.26 | gamma-glutamyl glutathione in the urine [1]: significant amounts; affinity for / interaction with gamma-glutamyl transpeptidase [2]: much higher affinity |
| N[C@@H](CCC(=O)N[C@@H](CC(=O)O)C(=O)O)C(=O)O [L-Gamma-Glu-- L-Asp, L-Gamma-Glu-L-Asp] | 0.26 ± 0.10 | – |
| C[C@H](NC(=O)CC[C@H](NC(=O)CC[C@H](N)C(=O)O)C(=O)O)C(=O)O [L-Gamma-Glu-- L-Gamma-Glu-- L-Ala, L-Gamma-Glu-L-Gamma-Glu-L-Ala] | 5.07 ± 0.73 | induction of glutathionuria [1]: induced glutathionuria; in vivo conversion [3]: rapidly converted in vivo to gamma-glutamyl alanine |
| NC(=O)CC[C@H](NC(=O)CC[C@H](N)C(=O)O)C(=O)O [L-Gamma-Glu-- L-Gln, L-Gamma-Glu-L-Gln] | 1.17 ± 0.55 | – |
| N[C@@H](CCC(=O)N[C@@H](CCC(=O)O)C(=O)O)C(=O)O [L-Gamma-Glu-- L-Glu, L-Gamma-Glu-L-Glu] | 5.28 ± 1.05 | – |
| CC[C@H](C)[C@H](NC(=O)CC[C@H](N)C(=O)O)C(=O)O [L-Gamma-Glu-- L-Ile, L-Gamma-Glu-L-Ile] | 1.00 ± 0.10 | – |
| CC(C)C[C@H](NC(=O)CC[C@H](N)C(=O)O)C(=O)O [L-Gamma-Glu-- L-Leu, L-Gamma-Glu-L-Leu] | 0.60 ± 0.07 | – |
| CSCC[C@H](NC(=O)CC[C@H](N)C(=O)O)C(=O)O [L-Gamma-Glu-- L-Met, L-Gamma-Glu-L-Met] | 8.54 ± 0.99 | – |
| N[C@@H](CCC(=O)N[C@@H](Cc1ccc(O)cc1)C(=O)O)C(=O)O [L-Gamma-Glu-- L-Tyr, L-Gamma-Glu-L-Tyr] | 3.19 ± 0.80 | – |
| CC(C)[C@H](NC(=O)CC[C@H](N)C(=O)O)C(=O)O [L-Gamma-Glu-- L-Val, L-Gamma-Glu-L-Val] | 0.49 ± 0.25 | – |
| NC(CCC(=O)NNc1ccccc1C(=O)O)C(=O)O [L-gamma-glutamyl-(o-carboxy)phenylhydrazide] | – | glutathione found in the urine [4]: 3.6 to 5.6 mM; plasma glutathione levels ([5]; Griffith 1979): marked increases; decrease in kidney glutathione levels [5, 9]: ~30%; decrease in liver glutathione levels [5, 9]: ~13% |
| NCCCC[C@H](NC(=O)[C@@H](N)CCC(=O)O)C(=O)O [L-glu-L-(α )-lys, reference compound] (H-Glu-Lys-OH) | < 0.03 | – |
| C[C@H](NC(=O)[C@@H](N)CCC(=O)O)C(=O)O [L-glu-L-ala, reference compound] (H-Glu-Ala-OH) | < 0.03 | – |
| N[C@@H](CCC(=O)O)C(=O)N[C@@H](Cc1ccc(O)cc1)C(=O)O [L-glu-L-tyr, reference compound] (H-Glu-Tyr-OH) | < 0.03 | – |
| CC(C)[C@H](NC(=O)[C@@H](N)CCC(=O)O)C(=O)O [L-glu-L-val, reference compound] (H-Glu-Val-OH) | < 0.03 | – |
| NC(=O)CC[C@H](N)C(=O)O [L-glutamine, L-(and D-)glutamine, reference compound] | < 0.03 | induction of glutathionuria [1]: ineffective; affinity for / interaction with gamma-glutamyl transpeptidase [2]: very poor gamma-glutamyl substrate |
| CSC[C@H](NC(=O)CC[C@H](N)C(=O)O)C(=O)NCC(=O)O [S--Methyl glutathione] | 5.21 ± 1.30 | – |
| N[C@@H](CCC(=O)N[C@@H](CS)C(=O)O)C(=O)O [gamma-glutamylcysteine] | – | effect on liver glutathione levels [6]: does not affect; effect on kidney glutathione levels ([5]; Anderson 1983): increases |
| NCCCC[C@H](N)C(=O)O [lysine] | – | acceptor substrate of gamma-glutamyl transpeptidase [7]: extremely poor acceptor substrates |
| NNc1ccccc1C(=O)O [o-carboxyphenylhydrazine] | – | fatal dose [8]: more than 2 mM per kilogram of body weight |
| CC(C)[C@H](N)C(=O)O [valine] | – | acceptor substrate of gamma-glutamyl transpeptidase [7]: extremely poor acceptor substrates |
